Results as given in patent US20220016200A1, “PHARMACEUTICAL COMPOSITION FOR THE TREATMENT OF CYSTIC FIBROSIS” (GALENUS G.H. AG, priority 2018, published 2022).

Legend:
A. junii 1397597 [1] = test: Checkerboard colistin sulphate (CS) plus teicoplanin (TP), MIC/FIC and MBC/FBC; assay type: cell-based, Acinetobacter junii; settings: agent alone, CAMHB, 5*10^5 CFU/ml
Method: (§1) Checkerboard analysis to determine minimal inhibitory concentration (MIC)/fractional inhibitory concentration (FIC) and minimal bacterial concentration (MBC)/fractional bacterial concentration (FBC) values of colistin sulphate (CS) plus teicoplanin (TP) for 6 Gram-negative strains with a bacterial load 5(1-10)*10^5 CFU/ml in a cation-adjusted Mueller-Hinton broth (CAMHB). • a. Antimicrobial stock solutions were prepared using sterile distilled water • b. CS was added along the ordinate; TP was added along the abscissa to 96 well, flat bottom, polystyrene panels with no treatment. Colistin alone was tested in triplicates. • c. Serial 2-fold dilutions starting with 640 μg/ml CS and 640 μg/ml TP were made; 15 μl volume of the serial dilutions were added for each agent to the appropriate wells; final volume at 30 μl • d. For each agent tested alone an additional 15 μl media was added to the well. 30 μl were added in control wells where none of the agent was tested. The negative control well contains 150 μl media without any additions • e. From an overnight bacterial culture in tryptic soy broth, 100 μL was added to 10 mL of fresh tryptic soy broth. This was then incubated at 37° C. for 1.5 hour at 180 rpm. • f. Bacteria in 120 μl CAMHB were added to each well (end concentration 5(1-10)*10^5 CFU/ml) • g. Plates were incubated at 37° C. in an ambient air incubator for 24 h • h. Turbidity at OD600 is determined with a plate photometer • i. By using a one-time inoculator 3 μl from each well of the 96-well plate were transferred to three blood agar plates. The plates were incubated over night at 37° C. in an ambient air incubator • j. […] Determination of the fractional inhibitory concentration (FIC) index and fractional bactericidal concentration (FBC) index and characterization of antimicrobial interactions was assessed […]
(§2) Interactive categories were calculated from checkerboard analysis using MIC results from testing each agent alone and MIC results from the combination wells adjacent to the wells with growth in them […]

A. nosocomialis 1461911 [2] = test: as above; assay type: cell-based, Acinetobacter nosocomialis; settings: agent alone, CAMHB, 5*10^5 CFU/ml
Method: (§3) Checkerboard analysis to determine minimal inhibitory concentration (MIC)/fractional inhibitory concentration (FIC) and minimal […] (MBC)/fractional […] (FBC) values of colistin sulphate (CS) plus teicoplanin (TP) for 6 Gram-negative strains with a bacterial load 5(1-10)*10^5 CFU/ml in a cation-adjusted Mueller-Hinton broth (CAMHB). • a. Antimicrobial stock solutions were prepared using sterile distilled water • b. CS was added along the ordinate; TP was added along the abscissa to 96 well, flat bottom, polystyrene panels with no treatment. Colistin alone was tested in triplicates. • c. Serial 2-fold dilutions starting with 640 μg/ml CS and 640 μg/ml TP were made; 15 μl volume of the serial dilutions were added for each agent to the appropriate wells; final volume at 30 μl • d. For each agent tested alone an additional 15 μl media was added to the well. 30 μl were added in control wells where none of the agent was tested. The negative control well contains 150 μl media without any additions • e. From an overnight bacterial culture in tryptic soy broth, 100 μL was added to 10 mL of fresh tryptic soy broth. This was then incubated at 37° C. for 1.5 hour at 180 rpm. • f. Bacteria in 120 μl CAMHB were added to each well (end concentration 5(1-10)*10^5 CFU/ml) • g. Plates were incubated at 37° C. in an ambient air incubator for 24 h • h. Turbidity at OD600 is determined with a plate photometer • i. By using a one-time inoculator 3 μl from each well of the 96-well plate were transferred to three blood agar plates. The plates were incubated over night at 37° C. in an ambient air incubator • j. MIC values are defined as lowest concentration which restricts bacterial growth to OD600 ≤0.1 • k. MBC values were determined by visual reading the lowest concentration which inhibits 99.9% of the growth of bacteria in the wells • l. Determination of the fractional inhibitory concentration (FIC) index and fractional bactericidal concentration (FBC) index and characterization of antimicrobial interactions was assessed […]
(§4) FIC calculation was carried out as: (MIC of drug A, tested in combination)/(MIC of drug A, tested alone)+(MIC of drug B, tested in combination)/(MIC of drug B, tested alone). FBC calculation was carried out just as well […]
as §2
b. Indifference; FIC/FBC>0.5 to<4.0 c. Antagonism; FIC/FBC≥4.0 b. A. nosocomialis 1461911 (IHMA), colistin resistant

A. haemolyticus 1655843 [3] = test: as above; assay type: cell-based, Acinetobacter haemolyticus; settings: agent alone, CAMHB, 5*10^5 CFU/ml
Method: as §3, §4, §2
b. Indifference; FIC/FBC>0.5 to<4.0 c. Antagonism; FIC/FBC≥4.0 c. A. haemolyticus 1655843 (IHMA), colistin resistant

A. guillouiae 1285286 [4] = test: as above; assay type: cell-based, Acinetobacter guillouiae; settings: agent alone, CAMHB, 5*10^5 CFU/ml
Method: as §3, §4, §2
b. Indifference; FIC/FBC>0.5 to<4.0 c. Antagonism; FIC/FBC≥4.0 d. A. guillouiae 1285286 (IHMA), colistin resistant

S. maltophilia 1221783 [5] = test: as above; assay type: cell-based, Stenotrophomonas maltophilia; settings: agent alone, CAMHB, 5*10^5 CFU/ml, 24 h
Method: as §1, §2

S. maltophilia 1237289 [6] = test: as above; assay type: cell-based, Stenotrophomonas maltophilia; settings: S. maltophilia 1237289, agent alone, CAMHB, 5*10^5 CFU/ml
Method: as §3, with “Plates were incubated at 37° C. in an ambient air incubator for 24 h • h.” left out
as §4, §2
b. Indifference; FIC/FBC>0.5 to<4.0 c. Antagonism; FIC/FBC≥4.0 f. S. maltophilia 1237289 (IHMA), colistin resistant

[7] = tested on: Methicillin-resistant Staphylococcus aureus (MRSA); test: Three-step decolonization protocol for MRSA in paediatric patients with cystic fibrosis; assay type: in vivo; settings: patients are to receive a further five-day intravenous treatment to increase the success rate
Method: Methicillin-resistant Staphylococcus aureus (MRSA) is a bacterial pathogen in patients with cystic fibrosis (CF) although its clinical effects can be variable. In a three-step decolonization protocol for MRSA 15 paediatric patients are treated during a long follow-up period where 50% are successfully decolonized following one five-day course of i.v. Colistin and fusidic acid. To increase the success rate the patients are to receive a five-day intravenous teicoplanin treatment to clear MRSA colonization to 90-100%.

[8] = in vivo; cited from earlier work
A. junii 1397597 [9] = test: Checkerboard fusidic acid (FD) and colistin sulfate (CS), MIC/FIC and MBC/FBC; assay type: cell-based, Acinetobacter junii; settings: agent alone, CAMHB, 1*10^6 CFU/ml
Method: (§5) Checkerboard assays between fusidic acid (FD) and colistin sulfate (CS) with a bacterial load 5(1-10)*10^5 CFU/ml in cationic adapted Mueller Hinton broth (CAMHB). • a. Antimicrobial stock solutions were prepared using sterile distilled water; • b. CS was added along the ordinate; FD was added along the abscissa to 96 well, flat bottom, polystyrene panels with no treatment. Colistin alone was tested in triplicates; • c. Serial 2-fold dilutions starting with 640 […] CS and 640 μg/ml FD were made; 15 μl volume of the serial dilutions were added for each agent to the appropriate wells—final volume at 30 μl; • d. For each agent tested alone an additional 15 μl media was added to the well. 30 μl were added in control wells where none of the agent was tested. The negative control well contains 150 μl media without any additions; • e. From an overnight bacterial culture in tryptic soy broth, 100 μL was added to 10 mL of fresh tryptic soy broth. This was then incubated at 37° C. for 1.5 hour at 180 rpm; • f. Bacteria in 120 μl CAMHB were added to each well (end concentration 5(1-10)*10^5 CFU/ml); • g. Plates were incubated at 37° C. in an ambient air incubator for 24 h • h. Turbidity at OD600 is determined with a plate photometer • i. By using a one-time inoculator 3 μl from each well of the 96-well plate were transferred to three blood agar plates. The plates were incubated over night at 37° C. in an ambient air incubator; • j. MIC values are defined as lowest concentration which restricts bacterial growth to OD600≤0.1; • k. MBC values were determined by visual reading the lowest concentration which inhibits 99.9% of the growth of bacteria in the wells; • l. Determination of the fractional inhibitory concentration (FIC) index and fractional bactericidal concentration (FBC) index and characterization of antimicrobial interactions was assessed;
(§6) FIC calculation was carried out as: (MIC of drug A, tested in combination)/(MIC of drug A, tested alone)+(MIC of drug B, tested in combination)/(MIC of drug B, tested alone). FBC calculation was carried out just as well;
(§7) Interactive categories were calculated from checkerboard analysis using MIC results from testing each agent alone and MIC results from the combination wells adjacent to the wells with growth in them.
(§8) Determination of the fractional inhibitory concentration (FIC) index and fractional bactericidal concentration (FBC) index and characterization of antimicrobial interactions was assessed:
(§9) (ii) Indifference; FIC/FBC>0.5 to <4.0
(§10) (iii) Antagonism; FIC/FBC≥4.0
a. Acinetobacter junii 1391597 (IHMA), colistin resistant (CS 2/2-2/8)

A. nosocomialis 1461911 [10] = test: as above; assay type: cell-based, Acinetobacter nosocomialis; settings: A. nosocomialis 1461911, agent alone, CAMHB, 1*10^6 CFU/ml
Method: as §5, §6, §7, §8, §9, §10
b. Acinetobacter nosocomialis 1461911 (IHMA), colistin resistant (3xCS 4/8)

A. haemolyticus 1655843 [11] = test: as above; assay type: cell-based, Acinetobacter haemolyticus; settings: agent alone, CAMHB, 1*10^6 CFU/ml
Method: as §5, §6, §7, §8, §9, §10
c. Acinetobacter haemolyticus 1655843 (IHMA), colistin resistant (3xCS>16/>16-64/>64)

A. guillouiae 1285286 [12] = test: as above; assay type: cell-based, Acinetobacter guillouiae; settings: agent alone, CAMHB, 1*10^6 CFU/ml
Method: as §5, §6, §7, §8, §9, §10
d. Acinetobacter guillouiae 1285286 (IHMA), colistin resistant (2xCS 2/4)

S. maltophilia 1221783 [13] = test: Checkerboard fusidic acid (FD) and colistin sulfate (CS), MIC/FIC; assay type: cell-based, Stenotrophomonas maltophilia; settings: agent alone, CAMHB, 1*10^6 CFU/ml, 24 h
Method: Checkerboard assays between fusidic acid (FD) and colistin sulfate (CS) with a bacterial load 5(1-10)*10^5 CFU/ml in cationic adapted Mueller Hinton broth (CAMHB). • a. Antimicrobial stock solutions were prepared using sterile distilled water; • b. CS was added along the ordinate; FD was added along the abscissa to 96 well, flat bottom, polystyrene panels with no treatment. Colistin alone was tested in triplicates; • c. Serial 2-fold dilutions starting with 640 […] CS and 640 μg/ml FD were made; 15 μl volume of the serial dilutions were added for each agent to the appropriate wells—final volume at 30 μl; • d. For each agent tested alone an additional 15 μl media was added to the well. 30 μl were added in control wells where none of the agent was tested. […] Turbidity at OD600 is determined with a plate photometer • i. […] Determination of the fractional inhibitory concentration (FIC) index and fractional bactericidal concentration (FBC) index and characterization of antimicrobial interactions was assessed; […]
as §7
Determination of the fractional inhibitory concentration (FIC) index and fractional bactericidal concentration (FBC) index and characterization of antimicrobial interactions was assessed: […]

S. maltophilia 1237289 [14] = test: as above; assay type: cell-based, Stenotrophomonas maltophilia; settings: S. maltophilia 1237289, agent alone, CAMHB, 1*10^6 CFU/ml
Method: as §5, §6, §7, §8, §9, §10
e. Stenotrophomonas maltophilia 1237289 (IHMA), colistin resistant (CS 2/4-4/8-8/8)

[15] = after 48 h growth (values in brackets)

teicoplanin [TP]
MIC (A. junii 1397597 [1]; A. junii 1397597, 24 h): >64 µg/mL | MBC (A. junii 1397597 [1]; A. junii): >64 µg/mL | MIC (A. nosocomialis 1461911 [2]; A. nosocomialis 1461911, 24 h): >64 µg/mL | MBC (A. nosocomialis 1461911 [2]; A. nosocomialis): >64 µg/mL | MIC (A. haemolyticus 1655843 [3]; A. haemolyticus 1655843, 24 h): >64 µg/mL | MBC (A. haemolyticus 1655843 [3]; A. haemolyticus): >64 µg/mL | MIC (A. guillouiae 1285286 [4]; A. guillouiae 1285286, 24 h): >64 µg/mL | MBC (A. guillouiae 1285286 [4]; A. guillouiae): >64 µg/mL | MIC (S. maltophilia 1221783 [5]): >64 µg/mL | MIC (S. maltophilia 1237289 [6]; 24 h): >64 µg/mL | MIC (S. maltophilia 1237289 [6]; [15]): (>64) mg/l | clear MRSA colonization to [7]: 90-100% | terminal half-life, mean (±SD) [8]: 157 (±93) h | terminal half-life, median (range) [8]: 168 (111-278) h

CC(=O)O[C@H]1C[C@@]2(C)[C@@H](C[C@@H](O)[C@H]3[C@@]4(C)CC[C@@H](O)[C@@H](C)[C@@H]4CC[C@@]32C)/C1=C(\CCC=C(C)C)C(=O)O [FD, fusidic acid]
MIC (A. junii 1397597 [9]; A. junii 1397597, 24 h): 32 mg/1l | MBC (A. junii 1397597 [9]; Acinetobacter junii, 1397597, A. junii 1397597): 64 µg/mL | MIC (A. nosocomialis 1461911 [10]; 24 h): >64 mg/1l | MBC (A. nosocomialis 1461911 [10]; Acinetobacter nosocomialis): > 64 µg/mL | MIC (A. haemolyticus 1655843 [11]; A. haemolyticus 1655843, 24 h): 32 mg/1l | MBC (A. haemolyticus 1655843 [11]; Acinetobacter haemolyticus, 1655843, A. haemolyticus 1655843): 64 µg/mL | MIC (A. guillouiae 1285286 [12]; A. guillouiae 1285286, 24 h): 16 mg/1l | MBC (A. guillouiae 1285286 [12]; Acinetobacter guillouiae, 1285286, A. guillouiae, read-out: MBC): > 64 µg/mL | MIC (S. maltophilia 1221783 [13]): 64 mg/1l | MIC (S. maltophilia 1237289 [14]; 24 h): >64 mg/1l | MIC (S. maltophilia 1237289 [14]; [15]): (>64) mg/1l
